Source: patent EP0133934A2, “Pharmacologically active 1,3,4-thiadiazol-(3,2-a)-thieno-(2,3-d)-pyrimidin-5-(H)one derivatives” (NIKEPHARMA S.r.l., priority 1983, dated 1985)

Tests used:
carrageenin oedema = assay: Antiinflammatory activity: carrageenin oedema in the rat; format: in vivo; conditions: po, 4 h, read-out: OEDEMA INHIBITION % at the fourth hour
Protocol: (§1) The activity tests were carried out on male Spra gue-Dawley rats weighing 200+20 g and on male Swiss mice weighing 26+3 g.
(§2) The test compounds were administered orally by means of gastroesophageal tube, in the form of a suspen sion in a 10 ml/kg mucilage of 5% gum arabic; and intraperitoneally in the form of an aqueous suspen sion added with a few drops of Tween 80, in the con stant volume of 10 ml/kg.
The compounds under test and the control ones were administered orally one hour before the injection of 0.1 ml of 1% carrageenin in the right paw of the animals.
The volume of the paw was measured by means of a plethysmograph immediately before the injection and 2, 4 and 6 hours after.
The results were expressed as percentage inhibi tion of the oedema in the treated animals in comparison with the control animals, at the time of the maximum oedema development (fourth hour after the carrageenin injection).

[1] = tested on: Writhing test induced by phenyl-benzoquinone; assay: Phenylbenzoquinone writhing test in the rat; format: in vivo; conditions: Rattus norvegicus, po, 10 min, read-out: % INHIBI-TION
Protocol: as §1, §2

acetic acid peritonitis = assay: Anti-exudative activity: acetic acid peritonitis in the rat; format: in vivo; conditions: for EXUDATE VOLUME ml ± E.S.: controls 2.58 ± 0.18
Protocol: The test was carried out according to the procedure described by Arrigoni-Martelli (Boll.Chim. Far. 107, 29, 1968). This method is based upon the evaluation of the anti-exudative effect of a drug at the peritoneal level, following a intraperitoneal injection of 10 ml/kg of a 0.5% acetic acid solution.
The compounds under test were administered oral ly one hour before the inflammatory agent; 30 minutes after the treatment the animals were killed and the fluid from the peritoneal cavity was drawn and measured.
The test compounds were administered by oral route 1 hour before intraperitoneal injection of acetic acid (10 ml/kg of a 0.5% solution).
The anti-exudative activity was determined on the basis of the peritoneal exudate of the treated animals, in comparison with the controls.

gastric ulceration = format: in vivo, rat; conditions: os
Protocol: To rats fasted for 18 hours, with water ad libitum, were administered the compounds under test at "0" time and after 2 hours. Control rats were treated with established anti-inflammatory agents.
6 Hours after the beginning of the test, the animals were killed by ether inhalation.
Gastric ulceration was assessed on the ground of values ranging from 0 to 4: • 0 = no ulceration; • 1 = slight iperhaemia and/or a few ulcers; • 2 = severe iperhaemia and many punctiform ulcers; • 3 = severe submucosal hemorrage, one large ulcer and many punctiform ulcers; • 4 severe submucosal hemorrage and many large ulcers.
The ulcerogenic index was measured by the following formula (Lwoff. J.M., J. Pharmacol., 2, 81, 1971): [formula]

[2] = tested on: phenylbenzoquinone writhing test; assay: Phenylbenzoquinone writhing test in the mouse (ED50 and duration of effect); format: in vivo; conditions: for % INHI-BITION / N° OF WRITHES IN 10' ml ± E.S.: Table 6, oral, one hour before the test; for N° OF WRITHES IN 10' ml ± E.S.: controls 52.4 ± 1.69; for % INHIBITION / Nº OF WRITHES IN 10' ml ± E.S.: Table 7, oral 1 mg/kg; for Nº OF WRITHES IN 10' ml ± E.S.: controls 53.2 ± 1.26
Protocol: The analgesic effect was determined by the number of writhes of the abdomen recorded during 10 minutes (from 5 to 15 minutes after the phenylbenzo quinone injection).

Carrageenin pleuritis = Carrageenin pleuritis in the rat; format: in vivo; conditions: for EXUDATE VOLUME: 30 min. before carrageenin and 6 hours after, exudate at 18 hours, controls 2.76 ± 0.38
Protocol: Compound HA-34 was tested for the protective activity against the exudative pleuritis reaction induced by carrageenin. HA-34 was administered 30 min. before the injection of carrageenin, and 6 hours after it. The experiment was carried out on male Spra- gue-Dawley rats, anestethized with ethyl urethane, which were subjected, in their right pleural cavity, to injection of 1.5 ml of air and then 0.1 ml of a 1% carrageenin solution, in sterile normal saline, according to the procedure by Van Armann et al. (J. Pharmac. Exp. Ther., 150, 328, 1965). Indometha cin and Piroxicam were employed as the control drugs, under the same conditions. 18 Hours after the intrapleuric carrageenin injec tion, the animals were killed by means of ether inhalation, and the pleuric exudate was collected and measured.

[3] = 30 min. before phenylbenzoquinone

COc1ccc2c(c1)c(CC(=O)O)c(C)n2C(=O)c1ccc(Cl)cc1 [INDO, Indomethacin]
inhibition in vivo at 10 mg/kg (carrageenin oedema): 57.3 ± 0.85% | inhibition in vivo at 0.5 mg/kg [1]: 49% | inhibition in vivo at 5 mg/kg [1]: 87% | inhibition in vivo at 1 mg/kg (acetic acid peritonitis; Rattus norvegicus, po, Table 4, os, 1 mg/kg): 74% | inhibition in vivo at 10 mg/kg (acetic acid peritonitis; Rattus norvegicus, po, Table 4, os, 10 mg/kg): 93% | inhibition in vivo at 0.1 mg/kg (acetic acid peritonitis; Rattus norvegicus, po, Table 8, oral, 0.1 mg/kg): 37.2% | inhibition in vivo at 0.5 mg/kg (acetic acid peritonitis; Rattus norvegicus, po, Table 8, oral, 0.5 mg/kg): 53% | inhibition in vivo at 1 mg/kg (acetic acid peritonitis; Rattus norvegicus, po, Table 8, oral, 1 mg/kg): 72.8% | inhibition in vivo at 10 mg/kg (acetic acid peritonitis; Rattus norvegicus, po, Table 8, oral, 10 mg/kg): 94.8% | ED50 (acetic acid peritonitis; Rattus norvegicus, oral administration 1 hour before i.p. acetic acid): 0.3 mg/kg | EXUDATE VOLUME ml ± E.S. (acetic acid peritonitis; Table 8, oral, 0.1 mg/kg, 1 hour before acetic acid): 1.62 ± 0.09 mL | EXUDATE VOLUME ml ± E.S. (acetic acid peritonitis; Table 8, oral, 0.5 mg/kg): 1.21 ± 0.07 mL | EXUDATE VOLUME ml ± E.S. (acetic acid peritonitis; Table 8, oral, 1 mg/kg): 0.70 ± 0.09 mL | EXUDATE VOLUME ml ± E.S. (acetic acid peritonitis; Table 8, oral, 10 mg/kg): 0.13 ± 0.04 mL | ULCERA-TION INDEX (gastric ulceration): 250 | % ANIMALS WITH ULCERS (gastric ulceration; 20 mg/kg): 100% | ULCERA-TION DEGREE (gastric ulceration; 20 mg/kg, scale 0 to 4): 2.5 | ED50 ([2]; Mus musculus, po, 1 h): 0.5 mg/kg | % INHI-BITION ([2]; 0.1 mg/kg): 22.9% | N° OF WRITHES IN 10' ml ± E.S. ([2]; 0.1 mg/kg): 40.4 ± 2.46 | % INHI-BITION ([2]; 0.5 mg/kg): 48.1% | N° OF WRITHES IN 10' ml ± E.S. ([2]; 0.5 mg/kg): 27.2 ± 1.48 | % INHI-BITION ([2]; 1 mg/kg): 87.0% | N° OF WRITHES IN 10' ml ± E.S. ([2]; 1 mg/kg): 6.8 ± 0.76 | % INHI-BITION ([2]; 5 mg/kg): 91.4% | N° OF WRITHES IN 10' ml ± E.S. ([2]; 5 mg/kg): 4.5 ± 0.65 | % INHIBITION [2, 3]: 85.5% | Nº OF WRITHES IN 10' ml ± E.S. [2, 3]: 7.7 ± 1.18 | % INHIBITION ([2]; 1 h before phenylbenzoquinone): 87.8% | Nº OF WRITHES IN 10' ml ± E.S. ([2]; 1 h before phenylbenzoquinone): 6.5 ± 0.86 | % INHIBITION ([2]; 3 h before phenylbenzoquinone): 88.3% | Nº OF WRITHES IN 10' ml ± E.S. ([2]; 3 h before phenylbenzoquinone): 6.2 ± 0.70 | % INHIBITION ([2]; 4 h before phenylbenzoquinone): 87.2% | Nº OF WRITHES IN 10' ml ± E.S. ([2]; 4 h before phenylbenzoquinone): 6.8 ± 0.64 | % INHIBITION ([2]; 6 h before phenylbenzoquinone): 80.4% | Nº OF WRITHES IN 10' ml ± E.S. ([2]; 6 h before phenylbenzoquinone): 10.4 ± 0.56 | % INHIBITION ([2]; 8 h before phenylbenzoquinone): 60.3% | Nº OF WRITHES IN 10' ml ± E.S. ([2]; 8 h before phenylbenzoquinone): 21.2 ± 1.26 | % INHIBITION ([2]; 24 h before phenylbenzoquinone): 53.4% | Nº OF WRITHES IN 10' ml ± E.S. ([2]; 24 h before phenylbenzoquinone): 24.8 ± 1.15 | % INHIBITION ([2]; 32 h before phenylbenzoquinone): 25.9% | Nº OF WRITHES IN 10' ml ± E.S. ([2]; 32 h before phenylbenzoquinone): 39.4 ± 1.36 | % INHIBITION (Carrageenin pleuritis; 5 mg/kg): 51.8% | EXUDATE VOLUME (Carrageenin pleuritis; 5 mg/kg): 1.33 ± 0.34 | % INHIBITION (Carrageenin pleuritis; 10 mg/kg): 72.4% | EXUDATE VOLUME (Carrageenin pleuritis; 10 mg/kg): 0.76 ± 0.20
